Results published in US10653688B2, “6-(6-membered heteroaryl and aryl)isoquinolin-3-yl carboxamides and preparation and use thereof” (Samumed, LLC, priority 2017, dated 2020).
Like-named read-outs stand apart in the source and are kept apart here.

How the values were obtained:
[1] = system: Wnt activity (SW480 colon carcinoma cells stably expressing the Sp5-Luc reporter gene); test: Wnt activity screening assay (Sp5-Luc reporter gene assay); format: cell-based, human; conditions: Homo sapiens; for EC50: 36 to 48 hours; for inhibition at 10 µM: read-out: percent inhibition at 10 μM (given for EC50 >10 μM), 10 μM
Procedure, shortened: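 EC50 values come from a variable-slope four-parameter fit of luminescence normalized to DMSO-only wells. The read-out follows 36–48 h incubation at 37 °C, 5% CO2, in DMEM containing 1% fetal bovine serum. Cells are hygromycin-selected SW480 stably expressing firefly luciferase under a Wnt-responsive Sp5 promoter (eight TCF/LEF sites).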

recombinant GSK3β kinase = recombinant GSK3β kinase (Homo sapiens (Human), UniProt P49841); test: GSK3β kinase assay (Ser/Thr 09 peptide Z-lyte, FRET); format: biochemical;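 further: FRET read-out as coumarin over fluorescein emission ratio, compounds incubated one hour at room temperature, IC50 from dose-response curve fit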
recombinant GSK3β kinase, sequence (P49841 whole entry): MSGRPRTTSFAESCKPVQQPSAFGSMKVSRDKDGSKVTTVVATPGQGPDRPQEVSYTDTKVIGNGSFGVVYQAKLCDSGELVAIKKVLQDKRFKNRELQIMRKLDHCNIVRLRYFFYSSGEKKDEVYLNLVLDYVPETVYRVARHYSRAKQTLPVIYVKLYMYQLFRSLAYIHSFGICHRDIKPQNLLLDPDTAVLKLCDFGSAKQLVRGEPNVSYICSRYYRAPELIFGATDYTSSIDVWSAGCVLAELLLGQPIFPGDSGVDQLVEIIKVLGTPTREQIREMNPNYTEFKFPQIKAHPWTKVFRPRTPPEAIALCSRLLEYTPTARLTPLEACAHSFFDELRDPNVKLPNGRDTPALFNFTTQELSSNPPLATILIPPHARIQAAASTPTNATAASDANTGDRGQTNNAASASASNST
Description: Each compound is dissolved in DMSO as a 10 mM stock and used to prepare compound source plates. Serial dilution (1:3, 11-point dose-response curves from 10 M to 0.0003 M) and compound transfer was performed using the ECHO 550 (Labcyte, Sunnyvale, Calif.) into 1536-well black-walled round bottom plates (Corning).
This is a non-radioactive assay using fluorescence resonance energy transfer (FRET) between coumarin and fluorescein to detect kinase activity which is represented as ratio of coumarin emission/fluorescein emission.
The mixture is allowed to incubate with the representative compounds for one hour at room temperature. All reactions were performed in duplicate. Unphosphorylated (“0% Control”) and phosphorylated (“100% control”) forms of Ser/Thr 18 serve as control reactions.
After incubation, diluted Development Buffer is added to the reaction and allowed to further incubate for one hour at room temperature.
Dose-response curves are generated and inhibitory concentration (IC50) values are calculated using non-linear regression curve fit in the Dotmatics' Studies Software (Bishops Stortford, UK).

[2] = system: Tau phosphorylation at Ser396 (pSer396) in SH-SY5Y cells; test: Tau phosphorylation at Ser396 (pSer396) cell assay, ELISA/western blot; format: cell-based, human; conditions: Homo sapiens; SH-SY5Y cells, overnight (16-18 h); read-out: pSer396 Tau EC50
Description: SH-SY5Y cells (human neuroblastoma) were cultured in DMEM/F-12 medium supplemented with 15% FBS, Non-essential Amino Acid and Penicillin/Streptomycin. Two days before treatment, cells were seeded onto 96 well plates at 5×10^4 cells/well.
The above synthesized compounds were screened using the cell assay procedure to assess decrease Tau phosphorylation at Ser396 (pSer396) described below.
DMSO-resuspended compounds were dispensed to 8 wells as a serial titration from 10 μM to 4.6 nM final in medium and cells were exposed overnight (16-18 h) in a humidified incubator at 36.6c before harvest.
Cells were lysed with RIPA buffer complemented with phosphatase and protease inhibitors then lysates were spun down at 12,000 g for 10 min to remove any cellular debris. Lysates are then either directly tested for pSer396 by ELISA (Life Technology, Kit KHB7031) or loaded on NuPage Bis-Tris gels for western blot analysis. Colorimetric detection of ELISA signal is performed by Cytation3 plate reader (Biotek) and the chemiluminescence signal for HRP-linked antibodies used in western blotting is detected using a Carestream Image Station. The same pSer396 antibody is used for detection of pTau in both assays.
Blot densitometry for pSer396 and β-actin were analyzed using ImageJ (NIH) and pSer396 Tau ELISA signal was used to plot, draw the curve fitting, and determine each compounds EC50 in Prism (GraphPad).

[3] = system: SW480 colon carcinoma cells; test: Cell viability assay (CellTiter-Glo); format: cell-based, human; conditions: Homo sapiens; for EC50: 96 h, four days, CellTiter-Glo; for inhibition at 10 µM: read-out: percent inhibition at 10 μM (given for EC50 >10 μM), 10 μM
[4] = system: LL29 cells (primary human fibroblasts derived from IPF patients), α-smooth muscle actin; test: Inhibition of fibrotic process: TGF-β1-treated primary human fibroblasts, αSMA staining; format: cell-based; conditions: Homo sapiens, Fibroblast; for EC50: 96 h, TGF-β1 20 ng/mL, 4 days, % cells positive for αSMA; for inhibition at 10 µM: read-out: percent inhibition at 10 μM (given for EC50 >10 μM), TGF-β1, αSMA, 10 μM;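 on all read-outs here: controls were TGF-β1-stimulated wells with DMSO vehicle as the positive reference and cells given DMSO alone as the negative reference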
[5] = system: secreted cytokines TNFα, IL-6 and KC-GRO in BV-2 cells (mouse microglial cells); test: Secreted cytokines in lipopolysaccharide-stimulated mouse glial cell line; format: cell-based; conditions: LPS 250 ng/mL 5 hours, table does not say which cytokine
Description: Representative compounds were screened using the cell-based assay procedure for secreted cytokines in a Lipopolysaccharide-stimulated mouse glial cell line described below.
BV-2 cells (mouse microglial cells) were cultured in 1:1 DMEM medium supplemented with 10% FBS, and 1% penicillin/streptomycin.
BV-2 cells are plated at 35,000 cells/well in a volume of 100 μl for at least 4 hours before compounds are added. DMSO-resuspended compounds were first dispensed in a 96-well plate and serial diluted from 10 μM to 4.6 nM final concentration in medium. Compounds were added to cells overnight. 250 ng/mL of lipopolysaccharide (Escherichia coli O111:B4, SIGMA) was added for 5 hours. Supernatant is removed and saved for further cytokine detection. The original plates with seeded cells were tested for cytotoxicity by measure of adenosine triphosphate (ATP) release by adding CellTiter-Glo® diluted 1:4 in distilled water (G7573, Promega) and transferring lysed cells to a completely black 96-well plate to be read with the Cytation3. Supernatant was then diluted 1:2 with a diluent from V-PLEX cytokine Kit and directly tested for the secreted cytokines TNFα, IL-6 and KC-GRO using electrochemiluminescence (Meso Scale Discovery). The standard curve for each cytokine was used to convert the electrochemiluminescent signal into pg of protein per mL. The signal was used to plot, draw the curve fitting, and determine each compounds EC50 in Prism (GraphPad).

[6] = system: IL-6 in human peripheral blood mononuclear cells (huPBMCs); test: IL-6 inhibition in LPS-stimulated human peripheral blood mononuclear cells (HTRF); format: cell-based; conditions: Homo sapiens, PBMC; for EC50: LPS 50 ng/mL, 22 hours, IL-6 HTRF; for inhibition at 10 µM: read-out: percent inhibition at 10 μM (given for EC50 >10 μM), LPS, IL-6, 10 μM
Procedure, shortened: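 Compound-treated huPBMCs (1×10e6 cells/mL, 1% FBS-RPMI) were stimulated after 2 h with LPS (50 ng/mL) for another 22 h at 37° C. An anti-IL-6 HTRF pair reported IL-6 as the 665/620 nm ratio; activity relative to DMSO, EC50 by 4-parameter Levenberg-Marquardt fitting, duplicates.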

[7] = target: recombinant DYRK1A kinase (Homo sapiens (Human), UniProt Q13627); test: DYRK1A kinase assay (Ser/Thr 18 peptide Z-lyte, FRET)
Description: Each compound was dissolved in DMSO as a 10 mM stock and used to prepare compound source plates.
This is a non-radioactive assay using fluorescence resonance energy transfer (FRET) between coumarin and fluorescein to detect kinase activity which is represented as a ratio of coumarin emission/fluorescein emission.
The mixture was allowed to incubate with the representative compounds for one hour at room temperature. All reactions were performed in duplicate. Unphosphorylated (“0% Control”) and phosphorylated (“100% control”) forms of Ser/Thr 18 served as control reactions. Additionally, an 11-point dose-response curve of Staurosporine (luM top) was run to serve as a positive compound control.
After incubation, Development Reagent A was diluted in Development Buffer then added to the reaction and allowed to further incubate for one hour at room temperature.
Dose-response curves were generated and inhibitory concentration (IC50) values were calculated using non-linear regression curve fit in the Dotmatics' Studies Software (Bishops Stortford, UK).

[8] = system: pT212Tau in Dyrk1a- and MAPT-overexpressing HEK293T cells; test: Tau phosphorylation at Threonine 212 (pT212Tau) sandwich ELISA in double transfected cells; conditions: Homo sapiens, HEK-293T, read-out: Thr212 EC50 (μM)
Description: HEK293T cells (transfectable human embryonic kidney cells) were cultured in DMEM medium supplemented with 10% FBS and 1% penicillin/streptomycin.
HEK293T cells were transiently transfected to overexpress Dyrk1a and microtubule-associated protein Tau (MAPT) genes. Specifically, Dyrk1a and MAPT expression vectors were obtained from OriGene (10 μg of each, catalog numbers SC314641 and RC216166, respectively). […] HEK293T cells were seeded at 1.0×10^7 cells in 10 mL per T-75 flask. […] One T-75 flask was designated as a no-vector negative control for pT212Tau signal.
After 4-6 hours of incubation in transfection reagents, transiently double transfected HEK293T cells were dissociated by treatment with trypsin EDTA and seeded at 1.0×10^5 cells in 100 μL per well in 96-well plates. No-vector negative controls were seeded in separate 96-well plates to avoid the risk of the negative control cells picking up the overexpression during incubation.
96-well flat-bottom plates were coated with 100 μL per well anti-HT7 capture antibody (ThermoFisher, MN1000) diluted 1:300 in 1×PBS at 4° C. overnight, with shaking at 500 rpm.
Cells were then lysed with 100 μL 1×RIPA buffer supplemented with phosphatase and protease inhibitors (each diluted to a final 1×). […] V-bottom plates were centrifuged at 4000 rpm, 4° C., for 15 minutes, and 100 μL of lysate supernatant from each well was directly tested for pT212Tau signal by sandwich ELISA.

[9] = GSK3β kinase, head says EC50, method says IC50, ATP 46 μM
[10] = DYRK1A kinase, head says EC50, method says IC50, ATP 30 μM

Row | SMILES | EC50 [1] [nM] | EC50 (recombinant GSK3β kinase) [nM] | EC50 [2] [nM] | EC50 [3] [nM] | EC50 [5] [nM] | EC50 [6] [nM] | EC50 [7] [nM] | EC50 (recombinant GSK3β kinase; [9]) [nM] | EC50 [7, 10] [nM] | inhibition at 10 µM [1] [%] | inhibition at 10 µM [3] [%] | EC50 [4] [nM] | inhibition at 10 µM [4] [%] | inhibition at 10 µM [6] [%] | EC50 [8] [µM]
1 | CN(C)[C@H]1CC[C@H](C(=O)Nc2cc3cc(-c4cnccn4)ccc3cn2)CC1 [Compound 70, trans-4-(dimethylamino)-N-(6-(pyrazin-2-yl)isoquinolin-3-yl)cyclohexane-1-carboxamide] | > 10000 | 755 | 7800 | > 10000 | 57 | 9330 | 17 |  |  | 31 | 35.3 | 634 |  |  | 
2 | CN1CCN(CC(=O)Nc2cc3cc(-c4cncc(C(F)(F)F)c4)ccc3cn2)CC1 [Compound 29, 2-(4-Methylpiperazin-1-yl)-N-(6-(5-(trifluoromethyl)pyridin-3-yl)isoquinolin-3-yl)acetamide] | 9840 |  | > 10000 | 4000 |  | > 10000 |  | > 10000 | 608 |  |  | 4020 |  | 4.3 | 
3 | CN1CCC(C(=O)Nc2cc3cc(-c4ccccn4)ccc3cn2)CC1 [Compound 3, 1-Methyl-N-(6-(pyridin-2-yl)isoquinolin-3-yl)piperidine-4-carboxamide] | > 10000 |  | > 10000 | > 10000 |  | > 10000 |  | 5310 | 260 | 13.7 | 50 | 6010 |  | 5.1 | 
4 | CNC(=O)c1cncc(-c2ccc3cnc(NC(=O)C4CCN(C)CC4)cc3c2)c1 [Compound 58, N-Methyl-5-(3-(1-methylpiperidine-4-carboxamido)isoquinolin-6-yl) nicotinamide] | > 10000 |  | > 10000 | > 10000 |  | 9660 |  | 1970 | 9 | 43.7 | 30.9 | > 10000 | 44.6 |  | 
5 | O=C(Nc1cc2cc(-c3cncc(F)c3)ccc2cn1)[C@H]1C[C@H](N2CCOCC2)C1 [Compound 16, trans-N-(6-(5-Fluoropyridin-3-yl)isoquinolin-3-yl)-3-morpholinocyclobutane-1-carboxamide] | > 10000 |  | 2600 | > 10000 |  | > 10000 |  | 256 | 8 | 24.9 | 15.5 | > 10000 | 6.7 | 43.1 | 0.046

Stronger by EC50 [1], values ahead:

Row | EC50 [1] [nM] | EC50 (recombinant GSK3β kinase) [nM] | EC50 [2] [nM] | EC50 [3] [nM] | EC50 [5] [nM] | EC50 [6] [nM] | EC50 [7] [nM] | EC50 (recombinant GSK3β kinase; [9]) [nM] | EC50 [7, 10] [nM] | SMILES | inhibition at 10 µM [1] [%] | inhibition at 10 µM [3] [%] | EC50 [4] [nM] | inhibition at 10 µM [4] [%] | inhibition at 10 µM [6] [%] | EC50 [8] [µM]
6 | 1060 |  | 807 | 2420 |  | 2090 |  | 180 | 6 | O=C(Nc1cc2cc(-c3cncc(OCC4CNC4)n3)ccc2cn1)c1ccc(F)cc1 [Compound 124, N-(6-(6-(azetidin-3-ylmethoxy)pyrazin-2-yl)isoquinolin-3-yl)-4-fluorobenzamide] |  |  | > 10000 | 5.2 |  | 
7 | 3510 |  | > 10000 | 6760 |  | > 10000 |  | > 10000 | 9 | O=C(Nc1cc2cc(-c3cnccn3)ccc2cn1)c1ccc(CN2CCOCC2)cc1 [Compound 83, 4-(Morpholinomethyl)-N-(6-(pyrazin-2-yl)isoquinolin-3-yl)benzamide] |  |  | > 10000 | 29.6 | 5 | 
8 | 862 | 698 | 9100 | 859 |  | 8940 | 3 |  |  | CN1CCC(C(=O)Nc2cc3cc(-c4cncc(CO)c4)ccc3cn2)CC1 [Compound 31, N-(6-(5-(Hydroxymethyl)pyridin-3-yl)isoquinolin-3-yl)-1-methylpiperidine-4-carboxamide] |  |  | 450 |  |  | 
